From US10947254B2, “Methods for treating ulcerative colitis using 3-((1R,3s,5S)-3-((7-((5-methyl-1H-pyrazol-3-yl)amino)-1,6-naphthyridin-5-yl)amino)-8-azabicyclo[3.2.1]octan-8-yl)propanenitrile” (priority 2015, dated 2021)

Columns and labels:
[1] = system: IL-13 induced STAT6 phosphorylation in BEAS-2B human lung epithelial cells; conditions: BEAS-2B cells
[2] = system: IL-4 induced STAT6 phosphorylation in THP-1 human monocytic cells; conditions: THP-1 cells

Row | Compound | BEAS2B pIC50 [1] | THP-1 IL4 pIC50 [2]
1 | CCC(CC#N)N1[C@@H]2CC[C@H]1C[C@H](Nc1nc(Nc3cc(C)[nH]n3)cc3ncccc13)C2 (stereo partly drawn) [Example 1-22] | A (A represents a pEC50 value ≥7.5 (EC50≤32 nM)) | 
2 | Cc1cc(Nc2cc3ncccc3c(N[C@@H]3C[C@H]4CC[C@@H](C3)N4CC(C)C#N)n2)n[nH]1 (stereo partly drawn) [Example 1-23] | A (A represents a pEC50 value ≥7.5 (EC50≤32 nM)) | A (A represents a pEC50 value ≥7.5 (EC50≤32 nM))
3 | Cc1cc(Nc2cc3ncccc3c(N[C@@H]3C[C@H]4CCC[C@@H](C3)N4CCC#N)n2)n[nH]1 [Example 1-31] | A (A represents a pEC50 value ≥7.5 (EC50≤32 nM)) | A (A represents a pEC50 value ≥7.5 (EC50≤32 nM))
4 | Cc1cc(Nc2cc3ncccc3c(N[C@@H]3C[C@H]4CCC[C@@H](C3)N4CCF)n2)n[nH]1 [Example 1-39] | A (A represents a pEC50 value ≥7.5 (EC50≤32 nM)) | A (A represents a pEC50 value ≥7.5 (EC50≤32 nM))
5 | Cc1cc(Nc2cc3ncccc3c(N[C@@H]3C[C@H]4CCC[C@@H](C3)N4CCCF)n2)n[nH]1 [Example 1-40] | A (A represents a pEC50 value ≥7.5 (EC50≤32 nM)) | A (A represents a pEC50 value ≥7.5 (EC50≤32 nM))
6 | Cc1cc(Nc2cc3ncccc3c(N[C@@H]3C[C@H]4CCC[C@@H](C3)N4CC(C)C)n2)n[nH]1 [Example 1-43] | A (A represents a pEC50 value ≥7.5 (EC50≤32 nM)) | A (A represents a pEC50 value ≥7.5 (EC50≤32 nM))
7 | Cc1cc(Nc2cc3ncccc3c(N[C@@H]3C[C@H]4CCC[C@@H](C3)N4CCC(F)(F)F)n2)n[nH]1 [Example 1-44] | A (A represents a pEC50 value ≥7.5 (EC50≤32 nM)) | A (A represents a pEC50 value ≥7.5 (EC50≤32 nM))
8 | Cc1cc(Nc2cc3ncccc3c(N[C@@H]3C[C@H]4CCC[C@@H](C3)N4Cc3cccnc3)n2)n[nH]1 [Example 1-47] | A (A represents a pEC50 value ≥7.5 (EC50≤32 nM)) | A (A represents a pEC50 value ≥7.5 (EC50≤32 nM))
9 | Cc1cc(Nc2cc3ncccc3c(N[C@@H]3C[C@H]4CCC[C@@H](C3)N4Cc3ccncc3C#N)n2)n[nH]1 [Example 1-56] | A (A represents a pEC50 value ≥7.5 (EC50≤32 nM)) | A (A represents a pEC50 value ≥7.5 (EC50≤32 nM))
10 | Cc1cc(Nc2cc3ncccc3c(N[C@@H]3C[C@H]4CC[C@@H](C3)N4C(=O)C(C)F)n2)n[nH]1 (stereo partly drawn) [Example 2-3] | A (A represents a pEC50 value ≥7.5 (EC50≤32 nM)) | 
11 | Cc1cc(Nc2cc3ncccc3c(N[C@@H]3C[C@H]4CCC[C@@H](C3)N4C(=O)c3ccccc3)n2)n[nH]1 [Example 2-25] | A (A represents a pEC50 value ≥7.5 (EC50≤32 nM)) | A (A represents a pEC50 value ≥7.5 (EC50≤32 nM))
12 | Cc1cc(Nc2cc3ncccc3c(N[C@@H]3C[C@H]4CCC[C@@H](C3)N4C(=O)c3cncc(C#N)c3)n2)n[nH]1 [Example 2-26] | C (C represents a pEC50 value <6.7 (EC50>200 nM)) | 
13 | Cc1cc(Nc2cc3ncccc3c(N[C@@H]3C[C@H]4CCC[C@@H](C3)N4C(=O)c3ccc(C#N)nc3)n2)n[nH]1 [Example 2-28] | C (C represents a pEC50 value <6.7 (EC50>200 nM)) | 
14 | Cc1cc(Nc2cc3ncccc3c(N[C@@H]3C[C@H]4CCC[C@@H](C3)N4C(=O)c3ccnc(C#N)c3)n2)n[nH]1 [Example 2-30] | C (C represents a pEC50 value <6.7 (EC50>200 nM)) | 
15 | CCC1(S(=O)(=O)N2[C@@H]3CCC[C@H]2C[C@H](Nc2nc(Nc4cc(C)[nH]n4)cc4ncccc24)C3)CC1 [Example 4-20] | A (A represents a pEC50 value ≥7.5 (EC50≤32 nM)) | A (A represents a pEC50 value ≥7.5 (EC50≤32 nM))
16 | Cc1cc(Nc2cc3ncccc3c(N[C@@H]3C[C@H]4CCC[C@@H](C3)N4S(=O)(=O)N3CCCC3)n2)n[nH]1 [Example 4-27] | A (A represents a pEC50 value ≥7.5 (EC50≤32 nM)) | A (A represents a pEC50 value ≥7.5 (EC50≤32 nM))
17 | Cc1cc(Nc2cc3ncccc3c(N[C@@H]3C[C@H]4CCC[C@@H](C3)N4S(=O)(=O)N3CCC3)n2)n[nH]1 [Example 4-29] | A (A represents a pEC50 value ≥7.5 (EC50≤32 nM)) | A (A represents a pEC50 value ≥7.5 (EC50≤32 nM))
18 | COc1ccc2c(N[C@@H]3C[C@H]4CC[C@@H](C3)N4CCCC#N)nc(Nc3cc(C)[nH]n3)cc2n1 [Example 5-2] | A (A represents a pEC50 value ≥7.5 (EC50≤32 nM)) | 
19 | COc1ccc2c(N[C@@H]3C[C@H]4CC[C@@H](C3)N4CC(C)C)nc(Nc3cc(C)[nH]n3)cc2n1 [Example 5-4] | A (A represents a pEC50 value ≥7.5 (EC50≤32 nM)) | A (A represents a pEC50 value ≥7.5 (EC50≤32 nM))
20 | C=CCOC(=O)N1[C@@H]2CC[C@H]1C[C@H](Nc1nc(Nc3cc(C)[nH]n3)cc3nc(OC)ccc13)C2 [Example 5-7] | A (A represents a pEC50 value ≥7.5 (EC50≤32 nM)) | 
21 | COc1ccc2c(N[C@@H]3C[C@H]4CC[C@@H](C3)N4CCC#N)nc(Nc3cc(C)[nH]n3)cc2n1 [Example 5-8] | A (A represents a pEC50 value ≥7.5 (EC50≤32 nM)) | A (A represents a pEC50 value ≥7.5 (EC50≤32 nM))
22 | COc1ccc2c(N[C@@H]3C[C@H]4CCC[C@@H](C3)N4CCC#N)nc(Nc3cc(C)[nH]n3)cc2n1 [Example 5-10] | A (A represents a pEC50 value ≥7.5 (EC50≤32 nM)) | A (A represents a pEC50 value ≥7.5 (EC50≤32 nM))

Row | Compound | BEAS2B pIC50 [1] | THP-1 IL4 pIC50 [2]
23 | C=CCOC(=O)N1[C@@H]2CC[C@H]1C[C@H](Nc1nc(Nc3cc(C)[nH]n3)cc3nc(CN4CCOCC4)ccc13)C2 [Example 5-17] | A (A represents a pEC50 value ≥7.5 (EC50≤32 nM)) | 
24 | Cc1cc(Nc2cc3nc(CN4CCOCC4)ccc3c(N[C@@H]3C[C@H]4CCC[C@@H](C3)N4S(C)(=O)=O)n2)n[nH]1 [Example 5-22] | A (A represents a pEC50 value ≥7.5 (EC50≤32 nM)) | 
25 | Cc1cc(Nc2cc3nc(CN4CCOCC4)ccc3c(N[C@@H]3C[C@H]4CCC[C@@H](C3)N4S(=O)(=O)c3cccnc3)n2)n[nH]1 [Example 5-27] | A (A represents a pEC50 value ≥7.5 (EC50≤32 nM)) | A (A represents a pEC50 value ≥7.5 (EC50≤32 nM))
26 | Cc1cc(Nc2cc3nc(CN4CCOCC4)ccc3c(N[C@@H]3C[C@H]4CCC[C@@H](C3)N4S(=O)(=O)c3cncc(F)c3)n2)n[nH]1 [Example 5-30] | A (A represents a pEC50 value ≥7.5 (EC50≤32 nM)) | A (A represents a pEC50 value ≥7.5 (EC50≤32 nM))
27 | Cc1cnc2cc(Nc3cc(C)[nH]n3)nc(N[C@@H]3C[C@H]4CC[C@@H](C3)N4CCC#N)c2c1 [Example 6-1] | A (A represents a pEC50 value ≥7.5 (EC50≤32 nM)) | A (A represents a pEC50 value ≥7.5 (EC50≤32 nM))
28 | Cc1cnc2cc(Nc3cc(C)[nH]n3)nc(N[C@@H]3C[C@H]4CCC[C@@H](C3)N4CCC#N)c2c1 [Example 6-6] | A (A represents a pEC50 value ≥7.5 (EC50≤32 nM)) | A (A represents a pEC50 value ≥7.5 (EC50≤32 nM))
29 | COc1cnc2cc(Nc3cc(C)[nH]n3)nc(N[C@@H]3C[C@H]4CC[C@@H](C3)N4C(=O)OCC(C)C)c2c1 [Example 6-25] | A (A represents a pEC50 value ≥7.5 (EC50≤32 nM)) | 
30 | Cc1cc(Nc2cc3ncc(S(C)(=O)=O)cc3c(N[C@@H]3C[C@H]4CC[C@@H](C3)N4CCCF)n2)n[nH]1 [Example 6-55] |  | C (C represents a pEC50 value <6.7 (EC50>200 nM))
31 | Cc1cc(Nc2cc3ncc(S(C)(=O)=O)cc3c(N[C@@H]3C[C@H]4CC[C@@H](C3)N4[C@@H]3CCOC3=O)n2)n[nH]1 [Example 6-57] |  | C (C represents a pEC50 value <6.7 (EC50>200 nM))
32 | Cc1cc(Nc2cc3ncc(S(C)(=O)=O)cc3c(N[C@@H]3C[C@H]4CC[C@@H](C3)N4[C@@H]3CCOC3=O)n2)n[nH]1 [Example 6-58] |  | C (C represents a pEC50 value <6.7 (EC50>200 nM))
33 | Cc1cc(Nc2cc3ncc(S(C)(=O)=O)cc3c(N[C@@H]3C[C@H]4CC[C@@H](C3)N4Cc3ccncc3)n2)n[nH]1 [Example 6-59] | C (C represents a pEC50 value <6.7 (EC50>200 nM)) | 
34 | COc1ccnc2cc(Nc3cc(C)[nH]n3)nc(N[C@@H]3C[C@H]4CC[C@@H](C3)N4C(=O)CN(C)C)c12 [Example 7-3] |  | C (C represents a pEC50 value <6.7 (EC50>200 nM))
35 | COc1ccnc2cc(Nc3cc(C)[nH]n3)nc(N[C@@H]3C[C@H]4CC[C@@H](C3)N4CCC#N)c12 [Example 7-6] |  | A (A represents a pEC50 value ≥7.5 (EC50≤32 nM))
36 | CCS(=O)(=O)N1[C@@H]2CC[C@H]1C[C@H](Nc1nc(Nc3cc(C)[nH]n3)c(F)c3ncccc13)C2 [Example 8-3] |  | A (A represents a pEC50 value ≥7.5 (EC50≤32 nM))
37 | Cc1cc(Nc2nc(N[C@@H]3C[C@H]4CC[C@@H](C3)N4S(=O)(=O)c3cncc(F)c3)c3cccnc3c2F)n[nH]1 [Example 8-5] | A (A represents a pEC50 value ≥7.5 (EC50≤32 nM)) | 
38 | Cc1cc(Nc2nc(N[C@@H]3C[C@H]4CC[C@@H](C3)N4C(=O)CN(C)C)c3cccnc3c2F)n[nH]1 [Example 8-7] |  | C (C represents a pEC50 value <6.7 (EC50>200 nM))
39 | Cc1cc(Nc2nc(NC3CC4CCC(C3)N4C(=O)C(C)O)c3cccnc3c2F)n[nH]1 (stereo not drawn) [Example 8-8] |  | C (C represents a pEC50 value <6.7 (EC50>200 nM))
40 | Cc1cc(Nc2nc(N[C@@H]3C[C@H]4CCC[C@@H](C3)N4S(=O)(=O)c3ccccc3)c3cccnc3c2F)n[nH]1 [Example 8-11] | A (A represents a pEC50 value ≥7.5 (EC50≤32 nM)) | 
41 | Cc1cc(Nc2nc(N[C@@H]3C[C@H]4CCC[C@@H](C3)N4S(=O)(=O)c3cncc(F)c3)c3cccnc3c2F)n[nH]1 [Example 8-13] | A (A represents a pEC50 value ≥7.5 (EC50≤32 nM)) | 
42 | Cc1cc(Nc2nc(N[C@@H]3C[C@H]4CCC[C@@H](C3)N4C(=O)CN(C)C)c3cccnc3c2F)n[nH]1 [Example 8-15] |  | C (C represents a pEC50 value <6.7 (EC50>200 nM))
43 | Cc1cnc2c(F)c(Nc3cc(C)[nH]n3)nc(N[C@@H]3C[C@H]4CC[C@@H](C3)N4S(=O)(=O)N3CC(C#N)C3)c2c1 [Example 8-19] |  | C (C represents a pEC50 value <6.7 (EC50>200 nM))
44 | Cc1cnc2c(F)c(Nc3cc(C)[nH]n3)nc(N[C@@H]3C[C@H]4CC[C@@H](C3)N4S(=O)(=O)c3cccnc3)c2c1 [Example 8-20] |  | C (C represents a pEC50 value <6.7 (EC50>200 nM))
